Assays:
[1] = system: IL-12 activation of STAT4 in NK-92 cells; test: IL-12 activation of STAT4 in NK-92 cells using AphaLISA SureFire technology; assay type: cell-based; conditions: Homo sapiens, NK92; IL-12 activation of STAT4 in NK-92 cells, AlphaLISA SureFire; average IC50; read-out: IL12 pSTAT4 IC50
Protocol: IL-2 is added freshly to the medium with each medium refreshment step. Cells are cultured in a humidified incubator at 37° C. 5% CO2.
A subcultured fraction of NK-92 cells is washed once in culture medium without rhIL-2 the day before the experiment and incubated overnight in a culture flask.
5% CO2. […] NK-92 cells are triggered with rhIL-12 for 30 min at 37° C. 5% CO2.
After 30 min of cytokine stimulation the cells are lysed by addition of 15 μL 5× lysis buffer (supplemented with the AlphaLISA kit). After 10 minutes, plates are frozen at −80° C. overnight and the next day the levels of phospho-STAT4 are quantified using the AlphaLISA SureFire ULTRA p-STAT4 (Tyr693) (Perkin Elmer, Catalogue number ALSU-PST4-A10K) according to the manufacturers instructions. AlphaLISA signal (relative light units) is measured using an Envision (Perkin Elmer).
(§1) The percentage inhibition is calculated as: […]
RLU(trigger/veh): Relative lumescent signal determined in presence of vehicle and trigger
RLU(test compound): Relative luminescent signal determined in presence of test compounds and trigger
PIN values are plotted for compounds tested in dose-response and IC50 values are derived using GraphPad Prism Software applying non-linear regression (sigmoidal) curve fitting. The data are expressed as the average IC50 from different experiments.

[2] = target: T1, Recombinant human TYK2 catalytic domain (amino acids 871-1187) (Homo sapiens, UniProt P29597); test: TYK2 radioactive assay polyGT substrate; assay type: biochemical; also: 0.1 µM ATP
T1 construct: catalytic domain (amino acids 871-1187)
T1 sequence (P29597 871-1187): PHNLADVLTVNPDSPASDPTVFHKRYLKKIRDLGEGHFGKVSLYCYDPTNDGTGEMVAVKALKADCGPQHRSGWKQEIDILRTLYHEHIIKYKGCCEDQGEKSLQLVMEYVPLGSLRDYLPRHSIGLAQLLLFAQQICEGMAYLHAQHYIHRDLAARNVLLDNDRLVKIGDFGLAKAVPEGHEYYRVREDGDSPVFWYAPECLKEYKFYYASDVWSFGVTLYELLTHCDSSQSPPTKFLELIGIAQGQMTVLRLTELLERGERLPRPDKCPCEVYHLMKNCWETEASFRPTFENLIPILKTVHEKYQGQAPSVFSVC
Protocol: After 120 min at 30° C., reactions were stopped by adding 25 μL/well of 150 mM phosphoric acid. […] Plates were washed 6 times with 300 μL per well of a 75 mM phosphoric acid solution and the bottom of the plates is sealed. […] Kinase activity is calculated by subtracting counts per min (cpm) obtained in the presence of a positive control inhibitor (10 μM staurosporine) from cpm obtained in the presence of vehicle. The ability of a test compound to inhibit this activity (or percentage inhibition) is determined as: […]
cpm test compound=cpm determined for sample with test compound present cpm control=cpm determined for sample with positive control inhibitor cpm vehicle=cpm determined in the presence of vehicle
Dose dilution series were prepared for the compounds enabling the testing of dose-response effects in the TYK2 assay and the calculation of the IC50 for each compound. Each compound is routinely tested at concentration of 20 μM followed by a 1/5 serial dilution, 10 points in a final concentration of 1% DMSO.

[3] = system: IFNα activation of STAT1 in PBMC; test: IFNα activation of STAT1 in PBMC; assay type: cell-based; conditions: Homo sapiens; IFNα activation of STAT1 in PBMC; average IC50; read-out: IFNα signaling inhibitory potency IC50
Protocol: After these 2 wash steps the cell pellet is dissolved in ammonium chloride buffer (1.5 M NH4Cl, 100 mM NaHCO3 and 10 mM Na2.EDTA) for lysis of the red blood cells.
PBMC are treated with test compound for 30 min at 37° C. 5% CO2. […] After 30 min of test compound/vehicle pre-treatment, PBMC are stimulated for 30 min at 37° C. 5% CO2 with recombinant human IFNα (PeproTech, catalog number 300-02A) at a final concentration of 5 ng/mL by addition of 20 μL (10× concentrated) cytokine trigger to obtain a final volume of 200 μL per well.
After 30 min of cytokine stimulation, 200 μL of cell suspension is transferred to a 96-well V-bottom plate, centrifugated for 5 min at 1000 rpm to pellet cells, followed by removal of supernatant.
as §1
RCLU(vehicle control): Relative Chemiluminescent signal determined in presence of vehicle and trigger
RCLU(test compound): Relative Chemiluminescent signal determined in presence of test compounds and trigger
RCLU(positive control): Relative Chemiluminescent signal determined in presence of positive control and trigger
PIN values are plotted for compounds tested in dose-response and average IC50 values are derived using GraphiPad Prism Software applying non-linear regression (sigmoidal) curve fitting.

SMILES	IC50 [1]	IC50 [2]	IC50 [3]
Cc1cc(C#N)ncc1Oc1cc(Nc2ccc(C(=O)N3CC(CO)C3)cn2)c2ncn(C)c2n1 [Compound 118, 5-[7-[[5-[3-(hydroxymethyl)azetidine-1-carbonyl]-2-pyridyl]amino]-3-methyl-imidazo[4,5-b]pyridin-5-yl]oxy-4-methyl-pyridine-2-carbonitrile]	299 nM	2.81 nM	110 nM
Cc1cc(C#N)ncc1Oc1cc(Nc2ccc(N3C[C@@H](C)O[C@@H](C)C3)nn2)c2ncn(C)c2n1 [Compound 43, (±)-5-{7-[6-((2R,6S)-2,6-Dimethyl-morpholin-4-yl)-pyridazin-3-ylamino]-3-methyl-3H-imidazo[4,5-b]pyridin-5-yloxy}-4-methyl-pyridine-2-carbonitrile]	49 nM	1.58 nM	70 nM
Cc1cc(C#N)ncc1Oc1cc(Nc2ccc(N3CCO[C@@H](C)C3)nn2)c2ncn(C)c2n1 [Compound 44, 4-Methyl-5-{3-methyl-7-[6-((S)-2-methyl-morpholin-4-yl)-pyridazin-3-ylamino]-3H-imidazo[4,5-b]pyridin-5-yloxy}-pyridine-2-carbonitrile]	50 nM	1.97 nM	79 nM
Cc1cc(C#N)ncc1Oc1cc(Nc2ccc(C(=O)N3CC(C)(O)C3)cn2)c2ncn(C)c2n1 [Compound 119, 5-[7-[[5-(3-hydroxy-3-methyl-azetidine-1-carbonyl)-2-pyridyl]amino]-3-methyl-imidazo[4,5-b]pyridin-5-yl]oxy-4-methyl-pyridine-2-carbonitrile]	261 nM	2.56 nM	81 nM
Cc1cc(C#N)ncc1Oc1cc(Nc2ccc(C(=O)N3CCOCC3)nn2)c2ncn(C)c2n1 [Compound 108, 4-methyl-5-[3-methyl-7-[[6-(morpholine-4-carbonyl)pyridazin-3-yl]amino]imidazo[4,5-b]pyridin-5-yl]oxypyridine-2-carbonitrile]	94 nM	2.63 nM	52 nM
Cc1cc(C#N)ncc1Oc1cc(Nc2ccc(N3CC(CN(C)C)C3)nn2)c2ncn(C)c2n1 [Compound 40, 5-{7-[6-(3-Dimethylaminomethyl-azetidin-1-yl)-pyridazin-3-ylamino]-3-methyl-3H-imidazo[4,5-b]pyridin-5-yloxy}-4-methyl-pyridine-2-carbonitrile]	3530 nM	9.69 nM	115 nM
Cc1cc(C#N)ncc1Oc1cc(Nc2ccc(N3CCN(C)CC3)cn2)c2ncn(C)c2n1 [Compound 50, 4-methyl-5-[3-methyl-7-[[5-(4-methylpiperazin-1-yl)pyridin-2-yl]amino]imidazo[4,5-b]pyridin-5-yl]oxypyridine-2-carbonitrile]	248 nM	5.54 nM	95 nM
Cc1cc(C#N)ncc1Oc1cc(Nc2ccc(C(=O)N3CC(O)(C4CC4)C3)cn2)c2ncn(C)c2n1 [Compound 113, 5-[7-[[5-(3-cyclopropyl-3-hydroxy-azetidine-1-carbonyl)-2-pyridyl]amino]-3-methyl-imidazo[4,5-b]pyridin-5-yl]oxy-4-methyl-pyridine-2-carbonitrile]	190 nM	2.05 nM	
CCNC(=O)Cc1ccc(Nc2cc(Oc3cnc(C#N)cc3C)nc3c2ncn3C)cc1 [Compound 27, 2-{4-[5-(6-Cyano-4-methyl-pyridin-3-yloxy)-3-methyl-3H-imidazo[4,5-b]pyridin-7-ylamino]-phenyl}-N-ethyl-acetamide]		38.9 nM	
Cc1cc(C#N)ncc1Oc1cc(Nc2ccc(C(=O)NCCCO)cn2)c2ncn(C)c2n1 [Compound 101, 6-[[5-[(6-cyano-4-methyl-3-pyridyl)oxy]-3-methyl-imidazo[4,5-b]pyridin-7-yl]amino]-N-(3-hydroxypropyl)pyridine-3-carboxamide]		9.36 nM	
Cc1cc(C#N)ncc1Oc1cc(Nc2ccc(C(=O)N3CC4(CCO4)C3)cn2)c2ncn(C)c2n1 [Compound 120, 4-methyl-5-[3-methyl-7-[[5-(3-oxa-6-azaspiro[3.3]heptane-6-carbonyl)-2-pyridyl]amino]imidazo[4,5-b]pyridin-5-yl]oxy-pyridine-2-carbonitrile]		1.57 nM	

Further lines, with some results ahead:

IC50 [1]	IC50 [2]	SMILES	IC50 [3]
89 nM	2.32 nM	Cc1cc(C#N)ncc1Oc1cc(Nc2ccc(C(=O)N3CC(OC(C)C)C3)cn2)c2ncn(C)c2n1 [Compound 137, 4-methyl-5-[3-methyl-7-[[5-(3-propan-2-yloxyazetidine-1-carbonyl)pyridin-2-yl]amino]imidazo[4,5-b]pyridin-5-yl]oxypyridine-2-carbonitrile]	62 nM
	1.15 nM	Cc1cc(C#N)ncc1Oc1cc(Nc2ccc(C(=O)N3CCOC[C@H]3C)cn2)c2ncn(C)c2n1 [Compound 146, 4-methyl-5-[3-methyl-7-[[5-[(3R)-3-methylmorpholine-4-carbonyl]pyridin-2-yl]amino]imidazo[4,5-b]pyridin-5-yl]oxypyridine-2-carbonitrile]	122 nM
	4.67 nM	Cc1cc(C#N)ncc1Oc1cc(Nc2ccc(C(=O)N3CCC(N(C)C(=O)OC(C)(C)C)C3)cn2)c2ncn(C)c2n1 (stereo not shown) [Compound 130, (1-{6-[5-(6-Cyano-4-methyl-pyridin-3-yloxy)-3-methyl-3H-imidazo[4,5-b]pyridin-7-ylamino]-pyridine-3-carbonyl}-pyrrolidin-3-yl)-methyl-carbamic acid tert-butyl ester]	
	4.53 nM	CO[C@@H]1CN(C(=O)c2ccc(Nc3cc(Oc4cnc(C#N)cc4C)nc4c3ncn4C)nc2)C[C@H]1F (racemic) [Compound 142, 4-methyl-5-[3-methyl-7-[[5-[rac-(3R,4R)-3-fluoro-4-methoxypyrrolidine-1-carbonyl]pyridin-2-yl]amino]imidazo[4,5-b]pyridin-5-yl]oxypyridine-2-carbonitrile]	
	0.97 nM	Cc1cc(C#N)ncc1Oc1cc(Nc2ccc(C(=O)N3CCOC[C@H]3C(C)C)cn2)c2ncn(C)c2n1 [Compound 157, 4-methyl-5-[3-methyl-7-[[5-[(3R)-3-propan-2-ylmorpholine-4-carbonyl]pyridin-2-yl]amino]imidazo[4,5-b]pyridin-5-yl]oxypyridine-2-carbonitrile]	
	2.26 nM	COC1CCN(C(=O)c2ccc(Nc3cc(Oc4cnc(C#N)cc4C)nc4c3ncn4C)nc2)CC1 [Compound 125, 5-[7-[[5-(4-methoxypiperidine-1-carbonyl)pyridin-2-yl]amino]-3-methylimidazo[4,5-b]pyridin-5-yl]oxy-4-methylpyridine-2-carbonitrile]	
	2.05 nM	Cc1cc(C#N)ncc1Oc1cc(Nc2ccc(C(=O)N3CCOC(C(F)(F)F)C3)cn2)c2ncn(C)c2n1 (stereo not shown) [Compound 155, 4-methyl-5-[3-methyl-7-[[5-[2-(trifluoromethyl)morpholine-4-carbonyl]pyridin-2-yl]amino]imidazo[4,5-b]pyridin-5-yl]oxypyridine-2-carbonitrile]	
	2.76 nM	Cc1cc(C#N)ncc1Oc1cc(Nc2ccc(C(=O)N(C)CCO)cn2)c2ncn(C)c2n1 [Compound 136, 6-[[5-(6-cyano-4-methylpyridin-3-yl)oxy-3-methylimidazo[4,5-b]pyridin-7-yl]amino]-N-(2-hydroxyethyl)-N-methylpyridine-3-carboxamide]	
